Measurements from the supplement of paper PMC4862054.

Legend:
Assay in all cases: normalised viability (% of control), CellTiter-Blue; higher = more viable cells (about 100 = DMSO control)
Conditions in all cases: incubation time: 72 h
BT-549 [1] = test system: BT-549
Description: (§1)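 DSRT, CellTiter-Blue viability, 72 h incubation. Signal is normalised to DMSO and benzethonium chloride controls. Value is the normalised response at dose 3.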

CAL-148 [2] = test system: CAL-148
Description: as §1

MDA-MB-453 [3] = test system: MDA-MB-453
Description: as §1

MFM-223 [4] = test system: MFM-223
Description: as §1

BT-474 = test system: BT-474
How it was run: (§2)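 Each entry is normalised viability at a single listed concentration within a series. It comes from breast cancer cell lines incubated 72 h with compound in 384-well plates, then measured with CellTiter-Blue fluorescence at 560/590 nm. Every plate was normalised between vehicle (100) and a positive kill control (0).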

BT-549 [5] = test system: BT-549; remark: listed apart in the source
How it was run: as §2

CAL-120 = test system: CAL-120
How it was run: as §2

CAL-148 [6] = test system: CAL-148; remark: listed apart in the source
How it was run: as §2

CAL-51 = test system: CAL-51
How it was run: as §2

CAL-85-1 = test system: CAL-85-1
How it was run: as §2

DU-4475 = test system: DU-4475
How it was run: as §2

HCC1143 = test system: HCC1143
How it was run: as §2

HCC1599 = test system: HCC1599
How it was run: as §2

HCC1937 = test system: HCC1937
How it was run: as §2

HDQ-P1 = test system: HDQ-P1
How it was run: as §2

Hs578T = test system: Hs578T
How it was run: as §2

MDA-MB-231 = test system: MDA-MB-231
How it was run: as §2

MDA-MB-436 = test system: MDA-MB-436
How it was run: as §2

MDA-MB-453 [7] = test system: MDA-MB-453; remark: listed apart in the source
How it was run: as §2

MDA-MB-468 = test system: MDA-MB-468
How it was run: as §2

MFM-223 [8] = test system: MFM-223; remark: listed apart in the source
How it was run: as §2

SK-BR-3 = test system: SK-BR-3
How it was run: as §2

NC(=O)Nc1cc(-c2cccc(F)c2)sc1C(=O)N[C@H]1CCCNC1 [AZD 7762]
Conditions | normalised viability [%]
BT-474, 1 nM | 119
BT-474, 100 nM | 113
BT-474, 1000 nM | 106
BT-549 [1], 10 nM | 120
BT-549 [5], 1 nM | 114
BT-549 [5], 100 nM | 118
BT-549 [5], 1000 nM | 35.5
CAL-51, 0.3 nM | 101
CAL-51, 3 nM | 93.7
CAL-51, 10 nM | 102
CAL-85-1, 0.3 nM | 106
CAL-85-1, 3 nM | 98.6
CAL-85-1, 10 nM | 99.4
CAL-120, 1 nM | 118
CAL-120, 100 nM | 101
CAL-120, 1000 nM | 26.5
CAL-148 [2], 1 nM | 105
CAL-148 [6], 0.3 nM | 110
CAL-148 [6], 3 nM | 106
CAL-148 [6], 10 nM | 111
DU-4475, 0.3 nM | 99.3
DU-4475, 3 nM | 109
DU-4475, 10 nM | 100
HCC1143, 1 nM | 120
HCC1143, 100 nM | 109
HCC1143, 1000 nM | 34.8
HCC1599, 1 nM | 93.2
HCC1599, 100 nM | 73.1
HCC1599, 1000 nM | 53.9
HCC1937, 1 nM | 104
HCC1937, 100 nM | 108
HCC1937, 1000 nM | 27.9
HDQ-P1, 0.3 nM | 108
HDQ-P1, 3 nM | 114
HDQ-P1, 10 nM | 115
Hs578T, 1 nM | 106
Hs578T, 100 nM | 90
Hs578T, 1000 nM | 27.3
MDA-MB-231, 1 nM | 112
MDA-MB-231, 100 nM | 102
MDA-MB-231, 1000 nM | 31.2
MDA-MB-436, 1 nM | 99
MDA-MB-436, 100 nM | 83.7
MDA-MB-436, 1000 nM | 18.5
MDA-MB-453 [3], 1 nM | 104
MDA-MB-453 [7], 0.3 nM | 113
MDA-MB-453 [7], 3 nM | 93.2
MDA-MB-453 [7], 10 nM | 108
MDA-MB-468, 1 nM | 107
MDA-MB-468, 100 nM | 103
MDA-MB-468, 1000 nM | 22.2
MFM-223 [4], 10 nM | 96.2
MFM-223 [8], 1 nM | 101
MFM-223 [8], 100 nM | 104
MFM-223 [8], 1000 nM | 51.7
SK-BR-3, 1 nM | 101
SK-BR-3, 100 nM | 93.2
SK-BR-3, 1000 nM | 11.5

NCC(=O)CCC(=O)O [Aminolevulinic acid]
Conditions | normalised viability [%]
BT-474, 10 nM | 115
BT-474, 1000 nM | 119
BT-474, 10000 nM | 131
BT-549 [1], 100 nM | 104
BT-549 [5], 10 nM | 85.6
BT-549 [5], 1000 nM | 84.1
BT-549 [5], 10000 nM | 90
CAL-51, 3 nM | 105
CAL-51, 30 nM | 100
CAL-51, 100 nM | 92.9
CAL-85-1, 3 nM | 99.9
CAL-85-1, 30 nM | 87.1
CAL-85-1, 100 nM | 98.8
CAL-120, 10 nM | 89.6
CAL-120, 1000 nM | 103
CAL-120, 10000 nM | 104
CAL-148 [2], 10 nM | 104
CAL-148 [6], 3 nM | 93.8
CAL-148 [6], 30 nM | 101
CAL-148 [6], 100 nM | 98.8
DU-4475, 3 nM | 104
DU-4475, 30 nM | 77.5
DU-4475, 100 nM | 110
HCC1143, 10 nM | 81.1
HCC1143, 1000 nM | 82.6
HCC1143, 10000 nM | 85.2
HCC1599, 10 nM | 84.3
HCC1599, 1000 nM | 86.5
HCC1599, 10000 nM | 90.8
HCC1937, 10 nM | 86.8
HCC1937, 1000 nM | 84.2
HCC1937, 10000 nM | 86.4
HDQ-P1, 3 nM | 95.2
HDQ-P1, 30 nM | 105
HDQ-P1, 100 nM | 110
Hs578T, 10 nM | 108
Hs578T, 1000 nM | 104
Hs578T, 10000 nM | 96.3
MDA-MB-231, 10 nM | 107
MDA-MB-231, 1000 nM | 93.2
MDA-MB-231, 10000 nM | 111
MDA-MB-436, 10 nM | 99.1
MDA-MB-436, 1000 nM | 102
MDA-MB-436, 10000 nM | 96.5
MDA-MB-453 [3], 10 nM | 99.1
MDA-MB-453 [7], 3 nM | 110
MDA-MB-453 [7], 30 nM | 93.5
MDA-MB-453 [7], 100 nM | 90.2
MDA-MB-468, 10 nM | 101
MDA-MB-468, 1000 nM | 111
MDA-MB-468, 10000 nM | 102
MFM-223 [4], 100 nM | 91.7
MFM-223 [8], 10 nM | 92.2
MFM-223 [8], 1000 nM | 91.3
MFM-223 [8], 10000 nM | 87.3
SK-BR-3, 10 nM | 96.3
SK-BR-3, 1000 nM | 108
SK-BR-3, 10000 nM | 101
